From PubChem BioAssay (NCI)
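Five compound concentrations were applied to cells in 96-well plates for 48 hours; endpoints were derived by simple linear interpolation of the resulting dose-response curve. Here, GI50 denotes the concentration required for 50% inhibition of growth. TGI marks complete inhibition of growth.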

Experiments:
Assay in all cases: DTP human tumour cell line panel, 48 h
786-0 renal = tested on: 786-0 renal
A498 renal = tested on: A498 renal
A549 NSCLC = tested on: A549 NSCLC
ACHN renal = tested on: ACHN renal
BT-549 breast = tested on: BT-549 breast
CAKI-1 renal = tested on: CAKI-1 renal
CCRF-CEM leukemia = tested on: CCRF-CEM leukemia
COLO 205 colon = tested on: COLO 205 colon
DU-145 prostate = tested on: DU-145 prostate
EKVX NSCLC = tested on: EKVX NSCLC
HCC-2998 colon = tested on: HCC-2998 colon
HCT-116 colon = tested on: HCT-116 colon
HCT-15 colon = tested on: HCT-15 colon
HL-60(TB) leukemia = tested on: HL-60(TB) leukemia
HOP-62 NSCLC = tested on: HOP-62 NSCLC
HOP-92 NSCLC = tested on: HOP-92 NSCLC
HS 578T breast = tested on: HS 578T breast
HT29 colon = tested on: HT29 colon
IGROV1 ovarian = tested on: IGROV1 ovarian
K-562 leukemia = tested on: K-562 leukemia
KM12 colon = tested on: KM12 colon
LOX IMVI melanoma = tested on: LOX IMVI melanoma
M14 melanoma = tested on: M14 melanoma
MALME-3M melanoma = tested on: MALME-3M melanoma
MCF7 breast = tested on: MCF7 breast
MDA-MB-231 breast = tested on: MDA-MB-231 breast
MDA-MB-435 = tested on: MDA-MB-435
MOLT-4 leukemia = tested on: MOLT-4 leukemia
NCI-H226 lung = tested on: NCI-H226 lung
NCI-H23 lung = tested on: NCI-H23 lung
NCI-H460 lung = tested on: NCI-H460 lung
NCI-H522 lung = tested on: NCI-H522 lung
NCI/ADR-RES ovarian = tested on: NCI/ADR-RES ovarian
OVCAR-3 ovarian = tested on: OVCAR-3 ovarian
OVCAR-4 ovarian = tested on: OVCAR-4 ovarian
OVCAR-5 ovarian = tested on: OVCAR-5 ovarian
OVCAR-8 ovarian = tested on: OVCAR-8 ovarian
PC-3 prostate = tested on: PC-3 prostate
RXF 393 renal = tested on: RXF 393 renal
SF-268 CNS = tested on: SF-268 CNS
SF-295 CNS = tested on: SF-295 CNS
SF-539 CNS = tested on: SF-539 CNS
SK-MEL-2 melanoma = tested on: SK-MEL-2 melanoma
SK-MEL-28 melanoma = tested on: SK-MEL-28 melanoma
SK-MEL-5 melanoma = tested on: SK-MEL-5 melanoma
SK-OV-3 ovarian = tested on: SK-OV-3 ovarian
SN12C renal = tested on: SN12C renal
SNB-19 CNS = tested on: SNB-19 CNS
SNB-75 CNS = tested on: SNB-75 CNS
SR leukemia = tested on: SR leukemia
SW-620 colon = tested on: SW-620 colon
T-47D breast = tested on: T-47D breast
TK-10 renal = tested on: TK-10 renal
U251 CNS = tested on: U251 CNS
UACC-257 melanoma = tested on: UACC-257 melanoma
UACC-62 melanoma = tested on: UACC-62 melanoma
UO-31 renal = tested on: UO-31 renal

COc1ccc([C@H]2c3[nH]c4ccccc4c3C[C@H]3C(=O)N(CCCCCCC(=O)NO)CC(=O)N23)cc1
GI50 (786-0 renal): 11 µM | TGI (786-0 renal): > 33.3 µM | GI50 (A498 renal): 2.91 µM | TGI (A498 renal): 9.55 µM | GI50 (A549 NSCLC): 5.28 µM | TGI (A549 NSCLC): > 33.3 µM | GI50 (ACHN renal): 1.92 µM | TGI (ACHN renal): 12.8 µM | GI50 (BT-549 breast): 10.9 µM | TGI (BT-549 breast): > 33.3 µM | GI50 (CAKI-1 renal): 1.68 µM | TGI (CAKI-1 renal): 13.9 µM | GI50 (CCRF-CEM leukemia): 1.48 µM | TGI (CCRF-CEM leukemia): > 33.3 µM | GI50 (COLO 205 colon): 2.04 µM | TGI (COLO 205 colon): 15 µM | GI50 (DU-145 prostate): 1.83 µM | TGI (DU-145 prostate): > 33.3 µM | GI50 (EKVX NSCLC): 13.4 µM | TGI (EKVX NSCLC): > 33.3 µM | GI50 (HCC-2998 colon): 1.15 µM | TGI (HCC-2998 colon): 5.34 µM | GI50 (HCT-116 colon): 1.07 µM | TGI (HCT-116 colon): > 33.3 µM | GI50 (HCT-15 colon): 9.05 µM | TGI (HCT-15 colon): > 33.3 µM | GI50 (HL-60(TB) leukemia): 1.19 µM | TGI (HL-60(TB) leukemia): > 33.3 µM | GI50 (HOP-62 NSCLC): 2.45 µM | TGI (HOP-62 NSCLC): > 33.3 µM | GI50 (HOP-92 NSCLC): 1.38 µM | TGI (HOP-92 NSCLC): 24.2 µM | GI50 (HS 578T breast): 1.34 µM | TGI (HS 578T breast): > 33.3 µM | GI50 (HT29 colon): 3.73 µM | TGI (HT29 colon): > 33.3 µM | GI50 (IGROV1 ovarian): 2.32 µM | TGI (IGROV1 ovarian): > 33.3 µM | GI50 (K-562 leukemia): 0.895 µM | TGI (K-562 leukemia): > 33.3 µM | GI50 (KM12 colon): 2.73 µM | TGI (KM12 colon): > 33.3 µM | GI50 (LOX IMVI melanoma): 1.54 µM | TGI (LOX IMVI melanoma): 5.91 µM | GI50 (M14 melanoma): 1.75 µM | TGI (M14 melanoma): > 33.3 µM | GI50 (MALME-3M melanoma): 0.806 µM | TGI (MALME-3M melanoma): > 33.3 µM | GI50 (MCF7 breast): 1.78 µM | TGI (MCF7 breast): > 33.3 µM | GI50 (MDA-MB-231 breast): 2.27 µM | TGI (MDA-MB-231 breast): > 33.3 µM | GI50 (MDA-MB-435): 3.32 µM | TGI (MDA-MB-435): 15.1 µM | GI50 (MOLT-4 leukemia): 1.11 µM | TGI (MOLT-4 leukemia): > 33.3 µM | GI50 (NCI-H226 lung): 6.26 µM | TGI (NCI-H226 lung): > 33.3 µM | GI50 (NCI-H23 lung): 1.96 µM | TGI (NCI-H23 lung): 28.7 µM | GI50 (NCI-H460 lung): 2.76 µM | TGI (NCI-H460 lung): > 33.3 µM | GI50 (NCI-H522 lung): 1.4 µM | TGI (NCI-H522 lung): > 33.3 µM | GI50 (NCI/ADR-RES ovarian): 4.26 µM | TGI (NCI/ADR-RES ovarian): > 33.3 µM | GI50 (OVCAR-3 ovarian): 1.88 µM | TGI (OVCAR-3 ovarian): 17.4 µM | GI50 (OVCAR-4 ovarian): 12.4 µM | TGI (OVCAR-4 ovarian): > 33.3 µM | GI50 (OVCAR-5 ovarian): 1.49 µM | TGI (OVCAR-5 ovarian): > 33.3 µM | GI50 (OVCAR-8 ovarian): 1.33 µM | TGI (OVCAR-8 ovarian): > 33.3 µM | GI50 (PC-3 prostate): 2.42 µM | TGI (PC-3 prostate): > 33.3 µM | GI50 (RXF 393 renal): 1.33 µM | TGI (RXF 393 renal): 6.12 µM | GI50 (SF-268 CNS): 7.7 µM | TGI (SF-268 CNS): > 33.3 µM | GI50 (SF-295 CNS): 1.91 µM | TGI (SF-295 CNS): 12.4 µM | GI50 (SF-539 CNS): 2.38 µM | TGI (SF-539 CNS): > 33.3 µM | GI50 (SK-MEL-2 melanoma): 2.79 µM | TGI (SK-MEL-2 melanoma): > 33.3 µM | GI50 (SK-MEL-28 melanoma): 1.29 µM | TGI (SK-MEL-28 melanoma): > 33.3 µM | GI50 (SK-MEL-5 melanoma): 1.89 µM | TGI (SK-MEL-5 melanoma): 6.89 µM | GI50 (SK-OV-3 ovarian): 3.02 µM | TGI (SK-OV-3 ovarian): > 33.3 µM | GI50 (SN12C renal): 4.19 µM | TGI (SN12C renal): > 33.3 µM | GI50 (SNB-19 CNS): 4.34 µM | TGI (SNB-19 CNS): > 33.3 µM | GI50 (SNB-75 CNS): 1.12 µM | TGI (SNB-75 CNS): > 33.3 µM | GI50 (SR leukemia): 1.46 µM | TGI (SR leukemia): > 33.3 µM | GI50 (SW-620 colon): 1.03 µM | TGI (SW-620 colon): > 33.3 µM | GI50 (T-47D breast): 0.952 µM | TGI (T-47D breast): 25.6 µM | GI50 (TK-10 renal): 2.86 µM | TGI (TK-10 renal): 32.7 µM | GI50 (U251 CNS): 1.61 µM | TGI (U251 CNS): > 33.3 µM | GI50 (UACC-257 melanoma): 1.12 µM | TGI (UACC-257 melanoma): > 33.3 µM | GI50 (UACC-62 melanoma): 0.705 µM | TGI (UACC-62 melanoma): 3.97 µM | GI50 (UO-31 renal): 1.47 µM | TGI (UO-31 renal): > 33.3 µM
